Source: article PMC5218480 (PLoS ONE, 2017)

Test system: MV-4-11 cells
Experiment: Gene expression microarray analysis (Affymetrix PrimeView) and GSEA
Assay type: cell-based, human
Design: RFU PODN (11730768_x_at) / Fold change /veh PODN (11730768_x_at) / RFU LINC00158 (11744669_a_at) / Fold change /veh LINC00158 (11744669_a_at) / RFU DUSP10 (11751237_a_at) / Fold change /veh DUSP10 (11751237_a_at) / RFU ID3 (11757404_x_at) / Fold change /veh ID3 (11757404_x_at) / RFU PLEKHG5 (11737974_s_at) / Fold change /veh PLEKHG5 (11737974_s_at) / RFU LRRC4B (11730491_at) / Fold change /veh LRRC4B (11730491_at) / RFU GIMAP4 (11747438_a_at) / Fold change /veh GIMAP4 (11747438_a_at) / RFU KRT8 (11758183_x_at) / Fold change /veh KRT8 (11758183_x_at) / RFU CNN1 (11734310_a_at) / Fold change /veh CNN1 (11734310_a_at) / RFU VPS37D (11726825_at) / Fold change /veh VPS37D (11726825_at) / RFU C10orf10 (11716522_x_at) / Fold change /veh C10orf10 (11716522_x_at) / RFU KIR2DL2 /// KIR2DL4 /// KIR2DL5A /// KIR2DL5B /// KIR2DS1 /// KIR2DS2 /// KIR2DS3 /// KIR2DS4 /// KIR3DL3 /// KIR3DL3 /// KIR3DS1 (11738374_at) / Fold change /veh KIR2DL2 /// KIR2DL4 /// KIR2DL5A /// KIR2DL5B /// KIR2DS1 /// KIR2DS2 /// KIR2DS3 /// KIR2DS4 /// KIR3DL3 /// KIR3DL3 /// KIR3DS1 (11738374_at) / RFU C1QL1 (11718748_at) / Fold change /veh C1QL1 (11718748_at) / RFU TMPRSS4 (11747572_a_at) / Fold change /veh TMPRSS4 (11747572_a_at) / RFU HAMP (11756126_x_at) / Fold change /veh HAMP (11756126_x_at) / RFU RNFT2 (11725882_a_at) / Fold change /veh RNFT2 (11725882_a_at) / RFU NR4A2 (11747474_a_at) / Fold change /veh NR4A2 (11747474_a_at) / RFU ABCC12 (11746883_a_at) / Fold change /veh ABCC12 (11746883_a_at) / RFU TMEM136 (11760407_x_at) / Fold change /veh TMEM136 (11760407_x_at) / RFU CLDN22 /// WWC2 (11732394_at) / Fold change /veh CLDN22 /// WWC2 (11732394_at) / RFU HLA-DPB1 (11760878_x_at) / Fold change /veh HLA-DPB1 (11760878_x_at) / RFU SPINT1 (11716480_a_at) / Fold change /veh SPINT1 (11716480_a_at) / RFU GAP43 (11754022_s_at) / Fold change /veh GAP43 (11754022_s_at) / RFU A4GNT (11735810_at) / Fold change /veh A4GNT (11735810_at) / RFU PRB3 (11715151_x_at) / Fold change /veh PRB3 (11715151_x_at) / RFU TUBB4B (11761932_at) / Fold change /veh TUBB4B (11761932_at) / RFU CAPN14 (11732068_a_at) / Fold change /veh CAPN14 (11732068_a_at) / RFU TMCC2 (11721928_a_at) / Fold change /veh TMCC2 (11721928_a_at) / RFU IRGQ (11745062_a_at) / Fold change /veh IRGQ (11745062_a_at) / RFU FAM174B (11720279_a_at) / Fold change /veh FAM174B (11720279_a_at) / RFU TMPRSS4 (11748680_a_at) / Fold change /veh TMPRSS4 (11748680_a_at) / RFU FAM212B (11763350_a_at) / Fold change /veh FAM212B (11763350_a_at) / RFU PLEKHG5 (11743358_a_at) / Fold change /veh PLEKHG5 (11743358_a_at) / RFU ZSCAN30 (11745921_a_at) / Fold change /veh ZSCAN30 (11745921_a_at) / RFU CMKLR1 (11741424_a_at) / Fold change /veh CMKLR1 (11741424_a_at) / RFU LOC101060620 /// MAPK8IP1 (11723275_at) / Fold change /veh LOC101060620 /// MAPK8IP1 (11723275_at) / RFU SPTSSB (11747773_x_at) / Fold change /veh SPTSSB (11747773_x_at) / RFU PRSS12 (11739890_at) / Fold change /veh PRSS12 (11739890_at) / RFU BIN1 (11741810_x_at) / Fold change /veh BIN1 (11741810_x_at) / RFU WNT11 (11732464_a_at) / Fold change /veh WNT11 (11732464_a_at) / RFU C10orf10 (11716521_a_at) / Fold change /veh C10orf10 (11716521_a_at) / RFU C5orf56 (11738089_at) / Fold change /veh C5orf56 (11738089_at) / RFU CYB561 (11721691_x_at) / Fold change /veh CYB561 (11721691_x_at) / RFU ANKRD19P (11752326_a_at) / Fold change /veh ANKRD19P (11752326_a_at) / RFU OR2T12 /// OR2T33 /// OR2T8 (11738714_s_at) / Fold change /veh OR2T12 /// OR2T33 /// OR2T8 (11738714_s_at) / RFU VCAN (11748164_a_at) / Fold change /veh VCAN (11748164_a_at) / RFU JSRP1 (11732532_at) / Fold change /veh JSRP1 (11732532_at) / RFU KRTAP10-11 (11738290_x_at) / Fold change /veh KRTAP10-11 (11738290_x_at) / RFU MYO3A (11730013_a_at) / Fold change /veh MYO3A (11730013_a_at) / RFU EBF3 (11725865_a_at) / Fold change /veh EBF3 (11725865_a_at) / RFU CAMK2N1 (11719241_x_at) / Fold change /veh CAMK2N1 (11719241_x_at) / RFU C5orf56 (11738088_a_at) / Fold change /veh C5orf56 (11738088_a_at) / RFU OLFML3 (11715873_a_at) / Fold change /veh OLFML3 (11715873_a_at) / RFU LOC100653217 /// NTM (11731650_a_at) / Fold change /veh LOC100653217 /// NTM (11731650_a_at) / RFU MAPK11 (11762145_a_at) / Fold change /veh MAPK11 (11762145_a_at) / RFU FIZ1 (11724087_x_at) / Fold change /veh FIZ1 (11724087_x_at) / RFU OASL (11726364_x_at) / Fold change /veh OASL (11726364_x_at) / RFU SOX15 (11748057_x_at) / Fold change /veh SOX15 (11748057_x_at) / RFU CD79A (11719716_a_at) / Fold change /veh CD79A (11719716_a_at) / RFU HIST1H1D (11736915_at) / Fold change /veh HIST1H1D (11736915_at) / RFU CASKIN2 (11723855_a_at) / Fold change /veh CASKIN2 (11723855_a_at) / RFU LOC730098 (11760151_x_at) / Fold change /veh LOC730098 (11760151_x_at) / RFU OR4N2 (11742367_at) / Fold change /veh OR4N2 (11742367_at) / RFU PRRT2 (11749266_a_at) / Fold change /veh PRRT2 (11749266_a_at) / RFU SNX32 (11753110_a_at) / Fold change /veh SNX32 (11753110_a_at) / RFU CDHR5 (11726645_a_at) / Fold change /veh CDHR5 (11726645_a_at) / RFU RCAN1 (11760418_a_at) / Fold change /veh RCAN1 (11760418_a_at) / RFU FAM167A (11723789_a_at) / Fold change /veh FAM167A (11723789_a_at) / RFU FAM26E (11764081_at) / Fold change /veh FAM26E (11764081_at) / RFU ISYNA1 (11749810_s_at) / Fold change /veh ISYNA1 (11749810_s_at) / RFU ACY1 (11761880_at) / Fold change /veh ACY1 (11761880_at) / RFU 11764098_at / Fold change /veh 11764098_at / RFU SAMD14 (11745864_x_at) / Fold change /veh SAMD14 (11745864_x_at) / RFU NPB (11741838_a_at) / Fold change /veh NPB (11741838_a_at) / RFU TMPRSS6 (11731388_a_at) / Fold change /veh TMPRSS6 (11731388_a_at) / RFU KRTAP10-2 (11738614_at) / Fold change /veh KRTAP10-2 (11738614_at) / RFU ARHGAP8 /// PRR5-ARHGAP8 (11727945_x_at) / Fold change /veh ARHGAP8 /// PRR5-ARHGAP8 (11727945_x_at) / RFU KRTAP5-7 /// NADSYN1 (11734609_at) / Fold change /veh KRTAP5-7 /// NADSYN1 (11734609_at) / RFU RASL12 (11751679_a_at) / Fold change /veh RASL12 (11751679_a_at) / RFU CDKN2B (11736163_a_at) / Fold change /veh CDKN2B (11736163_a_at) / RFU PRF1 (11729649_at) / Fold change /veh PRF1 (11729649_at) / RFU, ZNF638 /// ZNF638-IT1 / Fold change vs veh, ZNF638 /// ZNF638-IT1 / RFU, PANK3 / Fold change vs veh, PANK3 / RFU, SH3YL1 / Fold change vs veh, SH3YL1 / RFU, ZEB2 / Fold change vs veh, ZEB2 / RFU, NRIP1 / Fold change vs veh, NRIP1 / RFU, PTTG1IP / Fold change vs veh, PTTG1IP / RFU, CAPN2 / Fold change vs veh, CAPN2 / RFU, MED14 / Fold change vs veh, MED14 / RFU, SNORA58 / Fold change vs veh, SNORA58 / RFU, C1orf63 / Fold change vs veh, C1orf63 / RFU, LRRFIP1 / Fold change vs veh, LRRFIP1 / RFU, NDUFAF7 / Fold change vs veh, NDUFAF7 / RFU, SLC12A2 / Fold change vs veh, SLC12A2 / RFU, IBTK / Fold change vs veh, IBTK / RFU, ESF1 / Fold change vs veh, ESF1 / Fold change vs veh, TMEM50B / RFU, TAOK1 / Fold change vs veh, TAOK1 / RFU, ACBD3 / Fold change vs veh, ACBD3 / RFU, TMA16 / Fold change vs veh, TMA16 / RFU, RWDD3 / Fold change vs veh, RWDD3 / RFU, BCAT1 / Fold change vs veh, BCAT1 / RFU, EDEM3 / Fold change vs veh, EDEM3 / RFU, TMEM33 / Fold change vs veh, TMEM33 / RFU, WDR75 / Fold change vs veh, WDR75 / RFU, AHCTF1 / Fold change vs veh, AHCTF1 / RFU, TFRC / Fold change vs veh, TFRC / RFU, ZDHHC17 / Fold change vs veh, ZDHHC17 / RFU, NOM1 / Fold change vs veh, NOM1 / RFU, ARL8B / Fold change vs veh, ARL8B / RFU, ZBTB11 / Fold change vs veh, ZBTB11 / RFU, TAMM41 / Fold change vs veh, TAMM41 / RFU, KIAA1704 /// LOC100996395 / Fold change vs veh, KIAA1704 /// LOC100996395 / RFU, ING1 / Fold change vs veh, ING1 / RFU, TRMT61B / Fold change vs veh, TRMT61B / RFU, FUBP3 / Fold change vs veh, FUBP3 / RFU, TP53 / Fold change vs veh, TP53 / RFU, TNKS2 / Fold change vs veh, TNKS2 / RFU, ZFP14 / Fold change vs veh, ZFP14 / RFU, ACTR2 / Fold change vs veh, ACTR2 / RFU, PPP3R1 / Fold change vs veh, PPP3R1 / RFU, PIK3R1 / Fold change vs veh, PIK3R1 / RFU, HNRNPA1 / Fold change vs veh, HNRNPA1 / RFU, RNF170 / Fold change vs veh, RNF170 / RFU, ZNF28 / Fold change vs veh, ZNF28 / RFU, RNGTT / Fold change vs veh, RNGTT / RFU, OGT / Fold change vs veh, OGT / RFU, BRD1 / Fold change vs veh, BRD1 / RFU, MARS / Fold change vs veh, MARS / RFU, ZNF655 / Fold change vs veh, ZNF655 / RFU, FAHD1 / Fold change vs veh, FAHD1 / RFU, BDP1 / Fold change vs veh, BDP1 / RFU, LRRCC1 / Fold change vs veh, LRRCC1 / RFU, ARID1A / Fold change vs veh, ARID1A / RFU, ZNF146 / Fold change vs veh, ZNF146 / RFU, ZNF330 / Fold change vs veh, ZNF330 / RFU, GPN3 / Fold change vs veh, GPN3 / RFU, C9orf123 / Fold change vs veh, C9orf123 / RFU, N4BP2L2 / Fold change vs veh, N4BP2L2 / RFU, ARFIP1 / Fold change vs veh, ARFIP1 / RFU, FAM179B / Fold change vs veh, FAM179B / RFU, BCL10 / Fold change vs veh, BCL10 / RFU, UHRF1BP1L / Fold change vs veh, UHRF1BP1L / RFU, BET1 / Fold change vs veh, BET1 / RFU, CNOT2 / Fold change vs veh, CNOT2 / RFU, ZNF268 / Fold change vs veh, ZNF268 / Fold change vs veh, ZNF507 / RFU, DGCR2 / Fold change vs veh, DGCR2 / RFU, WDSUB1 / Fold change vs veh, WDSUB1 / Fold change vs veh, HSP90B1 /// MIR3652 / RFU, ADSS / Fold change vs veh, ADSS / RFU, GK / Fold change vs veh, GK / RFU, ZNF148 / Fold change vs veh, ZNF148 / RFU, TAF9 / Fold change vs veh, TAF9 / RFU, SLC1A5 / Fold change vs veh, SLC1A5 / RFU, SLMO2 / Fold change vs veh, SLMO2 / RFU, ABCC4 / Fold change vs veh, ABCC4 / RFU, LOC101060439 /// RAP1B / Fold change vs veh, LOC101060439 /// RAP1B / RFU, RFX7 / Fold change vs veh, RFX7 / RFU, GTPBP10 / Fold change vs veh, GTPBP10 / RFU, CNEP1R1 / Fold change vs veh, CNEP1R1 / RFU, BIVM-ERCC5 /// ERCC5 / Fold change vs veh, BIVM-ERCC5 /// ERCC5 / RFU, ILF3 / Fold change vs veh, ILF3 / RFU 11762660_at / Fold change /veh 11762660_at / RFU VCAN (11757783_s_at) / Fold change /veh VCAN (11757783_s_at) / RFU DDX43 (11728927_at) / Fold change /veh DDX43 (11728927_at) / RFU KRT8 (11758188_x_at) / Fold change /veh KRT8 (11758188_x_at) / RFU NKD1 (11759106_at) / Fold change /veh NKD1 (11759106_at) / RFU SRD5A1 (11742802_a_at) / Fold change /veh SRD5A1 (11742802_a_at) / RFU TPSAB1 /// TPSB2 (11721975_s_at) / Fold change /veh TPSAB1 /// TPSB2 (11721975_s_at) / RFU GSTM3 (11746129_a_at) / Fold change /veh GSTM3 (11746129_a_at) / RFU IL23R (11737362_x_at) / Fold change /veh IL23R (11737362_x_at) / RFU TMEM51 (11727254_a_at) / Fold change /veh TMEM51 (11727254_a_at) / RFU PIWIL2 (11732686_x_at) / Fold change /veh PIWIL2 (11732686_x_at) / RFU ORM1 (11744905_x_at) / Fold change /veh ORM1 (11744905_x_at) / RFU CCDC152 (11743942_at) / Fold change /veh CCDC152 (11743942_at) / RFU ECM1 (11717891_a_at) / Fold change /veh ECM1 (11717891_a_at) / RFU IL23R (11748794_a_at) / Fold change /veh IL23R (11748794_a_at) / RFU TNFAIP8L3 (11732012_x_at) / Fold change /veh TNFAIP8L3 (11732012_x_at) / RFU MBOAT4 (11741988_at) / Fold change /veh MBOAT4 (11741988_at) / RFU 11764193_at / Fold change /veh 11764193_at / RFU TMEM53 (11763286_at) / Fold change /veh TMEM53 (11763286_at) / RFU MAGEB2 (11727129_at) / Fold change /veh MAGEB2 (11727129_at) / RFU TMEM200A (11744735_a_at) / Fold change /veh TMEM200A (11744735_a_at) / RFU CCDC152 (11751479_a_at) / Fold change /veh CCDC152 (11751479_a_at) / RFU FAM211A (11726209_a_at) / Fold change /veh FAM211A (11726209_a_at) / RFU RGS16 (11746705_a_at) / Fold change /veh RGS16 (11746705_a_at) / RFU VCAN (11755009_s_at) / Fold change /veh VCAN (11755009_s_at) / RFU RHOB (11743442_s_at) / Fold change /veh RHOB (11743442_s_at) / RFU RGS16 (11720943_a_at) / Fold change /veh RGS16 (11720943_a_at) / RFU RGS16 (11720944_at) / Fold change /veh RGS16 (11720944_at) / RFU, VPS4B / Fold change vs veh, VPS4B / RFU, CREB1 / Fold change vs veh, CREB1 / RFU, DNAJC13 / Fold change vs veh, DNAJC13 / RFU, GNAQ / Fold change vs veh, GNAQ / RFU, CDK5R1 / Fold change vs veh, CDK5R1 / RFU, ZRANB3 / Fold change vs veh, ZRANB3 / RFU, CUL4A / Fold change vs veh, CUL4A / RFU, CCNY / Fold change vs veh, CCNY / RFU, UFL1 / Fold change vs veh, UFL1 / RFU, COG3 / Fold change vs veh, COG3 / RFU, DIAPH2 / Fold change vs veh, DIAPH2 / RFU, SKA2 / Fold change vs veh, SKA2 / RFU, AFF3 / Fold change vs veh, AFF3 / RFU, LMF1 / Fold change vs veh, LMF1 / RFU, IPO11 / Fold change vs veh, IPO11 / RFU, DFFB / Fold change vs veh, DFFB / RFU, FOXP1 / Fold change vs veh, FOXP1 / RFU, CARD8 / Fold change vs veh, CARD8 / RFU, STRN3 / Fold change vs veh, STRN3 / RFU, ADK / Fold change vs veh, ADK / RFU, RASSF2 / Fold change vs veh, RASSF2 / RFU, WIPF1 / Fold change vs veh, WIPF1 / RFU, LARP1B / Fold change vs veh, LARP1B / RFU, RASA1 / Fold change vs veh, RASA1 / RFU, RB1 / Fold change vs veh, RB1 / RFU, PPFIA1 / Fold change vs veh, PPFIA1 / RFU, MAT2A / Fold change vs veh, MAT2A / RFU, CCT5 / Fold change vs veh, CCT5 / RFU, WDR92 / Fold change vs veh, WDR92 / RFU, CUX1 / Fold change vs veh, CUX1 / RFU, TTC7A / Fold change vs veh, TTC7A / RFU, TMEM135 / Fold change vs veh, TMEM135 / RFU, DEPTOR / Fold change vs veh, DEPTOR / RFU, CPM / Fold change vs veh, CPM / RFU, DNAJB6 / Fold change vs veh, DNAJB6 / RFU, CACNA2D3 / Fold change vs veh, CACNA2D3 / RFU, DTX4 / Fold change vs veh, DTX4 / RFU, TFCP2 / Fold change vs veh, TFCP2 / RFU, GMCL1 /// GMCL1P1 / Fold change vs veh, GMCL1 /// GMCL1P1 / RFU, AEBP2 / Fold change vs veh, AEBP2 / RFU, SNHG1 /// SNORD22 /// SNORD25 /// SNORD26 /// SNORD27 /// SNORD28 /// SNORD29 /// SNORD31 / Fold change vs veh, SNHG1 /// SNORD22 /// SNORD25 /// SNORD26 /// SNORD27 /// SNORD28 /// SNORD29 /// SNORD31 / Fold change (Aza/veh), C12orf56 (ProbeSet 11735607_a_at) / Fold change (ACY-1035/veh), C12orf56 (ProbeSet 11735607_a_at) / Fold change (Aza/veh), FGFR1OP (ProbeSet 11751329_s_at) / Fold change (ACY-1035/veh), FGFR1OP (ProbeSet 11751329_s_at) / Fold change (Aza/veh), VPS36 (ProbeSet 11739960_a_at) / Fold change (ACY-1035/veh), VPS36 (ProbeSet 11739960_a_at) / RFU SYPL1 (11715823_x_at) / Fold change /veh SYPL1 (11715823_x_at) / RFU IGFBP7 (11715501_s_at) / Fold change /veh IGFBP7 (11715501_s_at) / RFU REEP3 (11722064_at) / Fold change /veh REEP3 (11722064_at) / RFU IGLL1 (11728026_x_at) / Fold change /veh IGLL1 (11728026_x_at): dose or concentration left out as unconfirmed
Settings: MV-4-11 cells, 48 hours

## Nc1ncn([C@@H]2O[C@H](CO)[C@@H](O)[C@H]2O)c(=O)n1 [azacitidine]
  RFU CAMK2N1 (11719241_x_at): 56.90 RFU
